Experiments:
[1] = molecular target: T1, S1PR1 (Homo sapiens, UniProt P21453); experiment: In vitro S1PR1 agonistic activity (PathHunter cell line, chemiluminescence); assay type: cell-based; conditions: for Emax: % activity relative to maximum control ligand; for EC50: agonist mode, 90-180 minutes at 37° C.
T1 construct: expressed in transfected cells
Method: Test Embodiment 1: In Vitro Evaluation of the Agonistic Activity of the Compounds of the Present Disclosure on S1PR1
Experimental Objective: To Detect the Agonistic Activity of Compounds on S1PR1
• 1. A PathHunter cell line was thawed according to standard procedures; • 2. the cells were inoculated in a 20 μL 384-well microplate and incubated at 37° C. for appropriate time. II. Agonist • 1. For agonist determination, cells were incubated with samples to be tested to induce a reaction; • 2. a storage solution to be tested was 5-fold diluted into a buffer; • 3. 5 μL of the 5-fold dilution was added to the cells and incubated at 37° C. for 90-180 minutes. The vehicle concentration was 1%. III. Signal Detection • 1. 12.5 μL or 15 μL of PathHunter detection reagent at a volume ratio of 50% was added at a time, and then incubated at room temperature for 1 hour to generate a detection signal; • 2. the microplate was read with a PerkinElmer Envision™ instrument for chemiluminescent signal detection. IV. Data Analysis • 1. Activity analysis of the compound was carried out by using CBIS data analysis kit (ChemInnovation, CA); • 2. Calculation formula: % activity=100%×(average test sample RLU−average vehicle RLU)/(average maximum control ligand−average vehicle RLU)

[2] = Pharmacokinetic evaluation in SD rats (intravenous injection and oral administration); assay type: in vivo; conditions: Sprague-Dawley, plasma, SD rat, male
Method: Test Embodiment 2: Pharmacokinetic Evaluation of Compound in Rats
Experimental Objective: To Test the Pharmacokinetics of the Compound in SD Rats
Sprague Dawley rat (male, 200-300 g, 7-9 weeks old, Shanghai SLAC)
(§1) A standard protocol was used to test the pharmacokinetic characteristics of rodents after intravenous injection and oral administration of the compound. In the experiment, the candidate compound was prepared into a clear solution, and administrated to rats by single intravenous injection and oral administration. The vehicle for intravenous injection was a 5:95 DMSO and 10% hydroxypropyl β-cyclodextrin aqueous solution, and the vehicle for oral administration was a 0.5% w/v methylcellulose and 0.2% w/v tween 80 aqueous solution. Whole blood samples within 24 hours were collected, centrifuged at 3000 g for 15 minutes, and the supernatant was separated to obtain plasma samples. Four times the volume of acetonitrile solution containing internal standard was added thereto to precipitate protein. The mixture was centrifuged, and the supernatant was taken, and an equal volume of water was added thereto. Then the mixture was centrifuged and the supernatant was taken for injection. The blood drug concentration was quantitatively analyzed by LC-MS/MS analysis method, and pharmacokinetic parameters, such as peak concentration, clearance rate, tissue distribution, half-life, area under the drug-time curve and bioavailability, were calculated.

[3] = Pharmacokinetic evaluation in CD-1 mice (intravenous injection and oral administration); assay type: in vivo; conditions: mouse, male, plasma
Method: Test Embodiment 3: Pharmacokinetic Evaluation of Compound in Mice
Experimental Objective: To Test the Pharmacokinetics of the Compound in CD-1 Mice
CD-1 mice (male, 20-40 g, 6-10 weeks old, Shanghai BK)
as §1, with “The” for “A”, “two mice” for “rats”, “3200” for “3000”, “10” for “15”, “concentration, tissue distribution,” for “concentration,”, “rate,” for “rate, tissue distribution,”

T1 sequence (P21453 whole entry): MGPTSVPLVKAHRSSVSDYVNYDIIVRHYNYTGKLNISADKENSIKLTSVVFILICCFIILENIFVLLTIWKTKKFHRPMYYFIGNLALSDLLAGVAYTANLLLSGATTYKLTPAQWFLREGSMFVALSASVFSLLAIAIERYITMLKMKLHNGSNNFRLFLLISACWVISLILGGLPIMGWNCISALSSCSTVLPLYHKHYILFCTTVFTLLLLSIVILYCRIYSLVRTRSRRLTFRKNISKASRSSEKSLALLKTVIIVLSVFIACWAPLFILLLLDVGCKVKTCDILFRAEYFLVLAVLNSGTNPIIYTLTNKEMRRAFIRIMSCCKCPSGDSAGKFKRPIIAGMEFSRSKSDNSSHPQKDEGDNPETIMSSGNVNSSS

Structure (SMILES)	Emax [1] [%]	EC50 [1] [nM]	also measured
CC(C)Oc1ncc(-c2nc(-c3cccc4c3CCC43CC(=O)N(CCO)C3)no2)cc1C#N (centres unmarked) [Compound 1]	99.3	0.134	AUC(0-t) ([2]; PO 3.0 mg/kg, read-out: Area under the drug-time curve AUC0-last PO): 35.5 µM·h; half-life ([2]; PO 3.0 mg/kg, read-out: Half-life T1/2 (PO) (converted)): 433 min; clearance ([2]; intravenous 1.0 mg/kg / oral 3.0 mg/kg, read-out: Clearance rate CL): 1.66 mL/min/kg; Vd ([2]; intravenous 1.0 mg/kg / oral 3.0 mg/kg, read-out: Tissue distribution Vdss): 1.18 L/kg; bioavailability ([2]; intravenous 1.0 mg/kg, oral 3.0 mg/kg, read-out: Bioavailability F): 71.9%; Cmax ([2]; intravenous 1.0 mg/kg / oral 3.0 mg/kg, read-out: Peak concentration Cmax): 3100 ng/mL; Cmax ([3]; intravenous 0.5 mg/kg / oral 2.0 mg/kg, read-out: Peak concentration Cmax): 2830 ng/mL; AUC(0-t) ([3]; PO 2.0 mg/kg, read-out: Area under the drug-time curve AUC0-last PO): 21.3 µM·h; half-life ([3]; PO 2.0 mg/kg, read-out: Half-life T1/2 (PO) (converted)): 210 min; clearance ([3]; intravenous 0.5 mg/kg / oral 2.0 mg/kg, read-out: Clearance rate CL): 3.42 mL/min/kg; Vd ([3]; intravenous 0.5 mg/kg / oral 2.0 mg/kg, read-out: Tissue distribution Vdss): 0.902 L/kg; bioavailability ([3]; intravenous 0.5 mg/kg, oral 2.0 mg/kg, read-out: Bioavailability F): 100%
CC(C)Oc1ncc(-c2nsc(-c3cccc4c3CCC43CC(=O)N(CCO)C3)n2)cc1C#N (centres unmarked) [Compound 4]	67.6	20.9	–
CC(C)Oc1ncc(-c2nc(-c3cccc4c3CCC43CC(=O)N(CCC(=O)O)C3)no2)cc1C#N (centres unmarked) [Compound 9]	104	0.613	–
CC(C)Oc1ncc(-c2nc(-c3cccc4c3CCC43CC(=O)N(CCO)C3)no2)cc1Br (centres unmarked) [Compound 3]	62.8	4.46	–
CC(C)Oc1ncc(-c2ncc(-c3cccc4c3CCC43CC(=O)N(CCO)C3)o2)cc1C#N (centres unmarked) [Compound 5]	63.5	24.3	–
CC(C)Oc1ncc(-c2nc(-c3cccc4c3CCC43CC(=O)N(CC(=O)O)C3)no2)cc1C#N (centres unmarked) [Compound 8]	110	1.25	–
CC(C)Oc1ncc(-c2nnc(-c3cccc4c3CCC43CC(=O)N(CCO)C3)s2)cc1C#N (centres unmarked) [Compound 11]	104	6.12	–
CC(C)Oc1ncc(-c2nc(-c3cccc4c3CCC43CCN(C4CC(C(=O)O)C4)C3)no2)cc1C#N (centres unmarked) [Compound 10]	92	0.474	–
CC(C)Oc1ncc(-c2ncc(-c3cccc4c3CCC43CC(=O)N(CCO)C3)s2)cc1C#N (centres unmarked) [Compound 7]	88.1	2.84	–
CC(C)Oc1ncc(-c2ncc(-c3cccc4c3CCC43CC(=O)N(CCO)C3)cn2)cc1C#N (centres unmarked) [Compound 6]	78.5	7.1	–

Source: patent US12637448B2, “Tricyclic compounds and use thereof” (HELIOEAST PHARMACEUTICAL CO., LTD, priority 2020, dated 2026)
